Assay [1] concerns the target T1, ACE (angiotensin I converting enzyme) (Homo sapiens, UniProt P12821).
T1 construct: purchased
In words: Test for ACE-inhibiting activity (commercial ACE, Bz-Gly-His-Leu substrate, fluorescence). Format: biochemical. How it is done:
The test for ACE-inhibiting activity was conducted by an ordinary method.
The ACE-inhibiting activity of the sample solution was expressed by the following formula: […]
where S: the fluorescent intensity of test solution,
C: the fluorescent intensity of comparative solution wherein water was used in place of the sample,
SB : the fluorescent intensity of blank for S (the blank contained water in place of the enzyme), and
CB : the fluorescent intensity of blank for C (the blank contained water in place of the enzyme).

Assay [2] deals with T2, GTase (glucosyltransferase) of S. sobrinus (Streptococcus downei, UniProt P27470).
T2 construct: Centrifugation was conducted to remove bacterial cells and obtain a supernatant; made in house; host or cells: S. sobrinus culture supernatant (native secreted enzyme, ammonium sulfate and hydroxyapatite purified)
T2 sequence (P27470 39-1592): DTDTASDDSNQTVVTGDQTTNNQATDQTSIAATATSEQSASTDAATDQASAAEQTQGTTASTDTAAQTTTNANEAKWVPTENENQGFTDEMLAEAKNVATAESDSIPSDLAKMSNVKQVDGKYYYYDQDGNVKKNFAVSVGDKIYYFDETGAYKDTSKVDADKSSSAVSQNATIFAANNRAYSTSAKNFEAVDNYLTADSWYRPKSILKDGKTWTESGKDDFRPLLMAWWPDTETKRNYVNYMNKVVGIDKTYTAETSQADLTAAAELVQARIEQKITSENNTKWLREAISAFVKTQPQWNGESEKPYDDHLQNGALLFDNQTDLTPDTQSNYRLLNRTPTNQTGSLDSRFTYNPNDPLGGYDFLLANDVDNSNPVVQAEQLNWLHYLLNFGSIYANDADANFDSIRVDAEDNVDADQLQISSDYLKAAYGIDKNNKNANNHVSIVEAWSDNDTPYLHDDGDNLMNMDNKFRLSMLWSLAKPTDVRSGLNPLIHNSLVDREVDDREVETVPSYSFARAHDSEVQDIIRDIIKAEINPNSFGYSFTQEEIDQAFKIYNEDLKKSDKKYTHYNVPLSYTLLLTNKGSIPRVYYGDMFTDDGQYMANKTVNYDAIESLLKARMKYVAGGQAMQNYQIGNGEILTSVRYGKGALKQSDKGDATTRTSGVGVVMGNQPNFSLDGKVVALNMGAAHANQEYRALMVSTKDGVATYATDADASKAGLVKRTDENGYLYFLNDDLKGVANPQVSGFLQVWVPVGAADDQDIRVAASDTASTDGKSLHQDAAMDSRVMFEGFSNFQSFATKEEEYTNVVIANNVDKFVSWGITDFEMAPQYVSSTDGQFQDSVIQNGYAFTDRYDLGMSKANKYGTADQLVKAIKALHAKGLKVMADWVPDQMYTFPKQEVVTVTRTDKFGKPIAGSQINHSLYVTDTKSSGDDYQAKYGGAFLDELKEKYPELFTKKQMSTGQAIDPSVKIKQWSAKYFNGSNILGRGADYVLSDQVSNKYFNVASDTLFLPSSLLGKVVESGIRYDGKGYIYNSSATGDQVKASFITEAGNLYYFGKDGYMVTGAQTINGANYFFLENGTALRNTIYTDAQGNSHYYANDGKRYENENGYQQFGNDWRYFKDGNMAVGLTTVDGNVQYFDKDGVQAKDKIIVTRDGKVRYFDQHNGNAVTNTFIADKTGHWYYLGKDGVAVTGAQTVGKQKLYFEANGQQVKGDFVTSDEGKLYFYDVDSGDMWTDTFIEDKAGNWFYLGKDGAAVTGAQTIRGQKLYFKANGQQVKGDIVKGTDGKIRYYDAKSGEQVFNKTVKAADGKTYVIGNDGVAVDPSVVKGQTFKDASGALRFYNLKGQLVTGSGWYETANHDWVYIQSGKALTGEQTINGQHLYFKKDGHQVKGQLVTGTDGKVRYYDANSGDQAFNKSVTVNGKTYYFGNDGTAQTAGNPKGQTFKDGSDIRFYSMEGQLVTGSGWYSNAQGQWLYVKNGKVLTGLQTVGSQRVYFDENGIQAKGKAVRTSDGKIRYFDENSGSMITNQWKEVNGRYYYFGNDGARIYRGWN
In words: Test for GTase-inhibiting activity (insoluble glucan formation, turbidity at 550 nm). Format: biochemical, Streptococcus sobrinus ATCC 33478. The note with it: for GTase-inhibiting activity (in words): FIG. 17 and 18. How it is done:
S. sobrinus was cultured in a TTY medium [Agric. Biol. Chem., 54 (11), pp. 2925-2929, 1990] at 37° C. for 18 hours. Centrifugation was conducted to remove bacterial cells and obtain a supernatant. To the supernatant was added ammonium sulfate to 50% saturation. Then, centrifugation was conducted to recover the resulting precipitate. The precipitate was redissolved in a 0.05 M phosphate buffer solution (pH 6.5). The resulting solution was dialyzed with the same buffer solution. The GTase in the dialyzate was purified and removed by hydroxyapatite chromatography. The GTase (capable of forming insoluble glucan) was eluted with an about 0.4 M phosphate buffer solution. The GTase-containing elute was used for the following test.
A purified GTase solution and a sample solution were added to 1 ml of a substrate solution [a 0.1 M phosphate buffer solution (pH 6.5) containing 2% of sucrose, 0.1% of sodium azide and 40 μM of dextran T10]. Water was added for dilution to make the total volume 2 ml. The resulting solution was subjected to a reaction at 37° C. for 18 hours. The amount of insoluble glucan formed by the reaction was measured as a turbidity expressed by an absorbance at 550 nm, and the formation ratio (%) of insoluble glucan was calculated using the following formula: […]
formation ratio (%) of insoluble glucan=(SS-SB).div.(CS-CB)×100 wherein SS: absorbance of sample, SB: absorbance of blank for sample (the blank contained no enzyme), CS: absorbance of control (containing no sample), and CB: absorbance of blank for control (the blank contained no sample and no enzyme).

The nature of assay [3]: Test method for antioxidative activity (peroxide formation from linolic acid, iron rhodanide method). The conditions noted are these: compound added at 2 μM/g (linolic acid); one week after addition; FIG. 4. The procedure:
5 ml of a base solution (ethanol containing 4% of linolic acid) was mixed with 4 ml of a phosphate buffer solution (pH=7.0) and 1 ml of a sample solution in a tightly stoppered test tube. The test tube was kept in a 50° C. thermostat under light shielding. Also kept under the same conditions were a test tube (control) containing ethanol in place of linolic acid and a test tube (blank) containing the sample solvent in place of the sample.
During the storage period, the reaction mixture was sampled with the lapse of time to quantitatively determine the amount of peroxide formed by the isothiocyanate method (the iron rhodanide method).

Assay [4] concerns Salmonella typhimurium TA 98 or TA 100. In words: Antimutagenic activity, modified Ames method with S 9-mix. Format: cell-based. The conditions noted are these: amount per plate. The procedure:
In this Example, antimutagenic activity was measured by modifying the ames method (Mutation Research, vol. 31, p. 347, 1975).
An antimutagenic compound [benzo(a)pyrene or Trp-P-2] solution was mixed with a phosphate buffer solution, a sample solution, S 9-mix and a salmonella (a solution obtained by culturing Salmonella typhimurium TA 98 or TA 100 overnight). The mixture was cultured at 37° C. for 2 days. The number of the resulting colonies was counted. The amount of each polyphenol used was shown based on a scale expressed in geometric progression, between 1 and 300 μg/plate. Antimutagenic activity was calculated using the following formula: […]
antimutagenic activity (%)={(C-B)-(S-B)}).div.(C-B)×100 wherein S: number of colonies of test solution
C: number of colonies of control wherein water is used in place of the sample, and B: number of colonies of blank wherein water is used in place of the sample and the mutagenic com pound.

Another assay has as its target T3, hyaluronidase (Bos taurus, UniProt Q2YDK3).
T3 construct: purchased
T3 sequence (Q2YDK3 36-553): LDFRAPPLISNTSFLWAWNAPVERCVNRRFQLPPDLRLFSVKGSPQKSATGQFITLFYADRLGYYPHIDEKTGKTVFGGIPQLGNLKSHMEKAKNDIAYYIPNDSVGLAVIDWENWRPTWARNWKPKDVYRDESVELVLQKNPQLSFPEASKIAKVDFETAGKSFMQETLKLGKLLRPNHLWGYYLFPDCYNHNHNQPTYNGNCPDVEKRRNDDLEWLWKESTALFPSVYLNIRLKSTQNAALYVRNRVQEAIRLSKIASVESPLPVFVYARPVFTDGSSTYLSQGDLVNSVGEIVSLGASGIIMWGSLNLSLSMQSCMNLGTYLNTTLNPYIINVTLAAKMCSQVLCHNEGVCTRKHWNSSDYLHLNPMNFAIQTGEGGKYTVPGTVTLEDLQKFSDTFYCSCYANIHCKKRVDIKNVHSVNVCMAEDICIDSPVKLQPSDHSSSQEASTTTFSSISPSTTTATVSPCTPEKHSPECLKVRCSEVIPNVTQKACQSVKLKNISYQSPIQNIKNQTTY
In words: Test for hyaluronidase-inhibiting activity (commercial hyaluronidase activated with compound 48/80). Format: biochemical. The conditions noted are these: FIG. 16.

Where two headings read alike, the source gives them in different places.

T1 sequence (P12821 30-1306, species assumed): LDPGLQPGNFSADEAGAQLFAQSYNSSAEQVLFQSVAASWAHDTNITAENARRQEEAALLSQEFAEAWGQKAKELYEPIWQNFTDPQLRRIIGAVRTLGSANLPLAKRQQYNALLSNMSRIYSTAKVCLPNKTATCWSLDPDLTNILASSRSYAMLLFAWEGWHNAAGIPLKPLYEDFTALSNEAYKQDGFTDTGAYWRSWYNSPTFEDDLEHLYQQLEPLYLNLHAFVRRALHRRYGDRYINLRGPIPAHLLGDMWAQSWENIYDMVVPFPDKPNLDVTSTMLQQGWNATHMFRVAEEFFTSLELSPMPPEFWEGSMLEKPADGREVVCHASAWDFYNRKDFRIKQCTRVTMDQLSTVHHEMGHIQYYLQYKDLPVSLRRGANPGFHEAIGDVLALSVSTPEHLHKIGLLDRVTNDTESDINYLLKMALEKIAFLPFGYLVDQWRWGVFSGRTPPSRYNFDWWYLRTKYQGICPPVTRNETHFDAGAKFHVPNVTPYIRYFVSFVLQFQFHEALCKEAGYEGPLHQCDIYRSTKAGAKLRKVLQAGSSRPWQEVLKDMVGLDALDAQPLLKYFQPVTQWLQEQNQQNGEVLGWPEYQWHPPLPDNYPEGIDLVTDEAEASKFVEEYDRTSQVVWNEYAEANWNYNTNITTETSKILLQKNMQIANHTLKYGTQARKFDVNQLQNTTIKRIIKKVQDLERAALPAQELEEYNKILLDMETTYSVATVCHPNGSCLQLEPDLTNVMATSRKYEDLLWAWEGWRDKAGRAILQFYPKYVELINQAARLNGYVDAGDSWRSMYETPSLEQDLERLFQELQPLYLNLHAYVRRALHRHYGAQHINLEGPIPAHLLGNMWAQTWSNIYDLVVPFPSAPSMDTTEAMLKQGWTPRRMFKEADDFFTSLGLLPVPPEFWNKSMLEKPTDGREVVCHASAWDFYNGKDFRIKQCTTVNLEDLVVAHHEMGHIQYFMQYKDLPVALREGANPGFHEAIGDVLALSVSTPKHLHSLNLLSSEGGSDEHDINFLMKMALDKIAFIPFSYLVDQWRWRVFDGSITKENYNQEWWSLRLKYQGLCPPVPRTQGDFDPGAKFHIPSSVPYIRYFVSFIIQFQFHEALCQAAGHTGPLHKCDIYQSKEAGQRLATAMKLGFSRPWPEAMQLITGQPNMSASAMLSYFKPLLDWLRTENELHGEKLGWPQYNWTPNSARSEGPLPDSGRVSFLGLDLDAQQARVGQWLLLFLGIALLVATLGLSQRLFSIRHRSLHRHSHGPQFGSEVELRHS
Description for hyaluronidase: That is, a sample solution was added to a commercial hyaluronidase solution, and preincubation was conducted. […] Then, a hyaluronic acid solution was added as a substrate, and a reaction was allowed to take place.
The N-acetylglucosamine produced by the above reaction was subjected to the Elson-Morgan's procedure to develop a color. […] Hyaluronidase-inhibiting activity (%) was calculated using the following formula:
(%)={(C-CB)-(S-SB)}.div.(C-CB)×100
wherein S: absorbance of test solution,
C: absorbance of control wherein a buffer solution is used in place of the sample,
SB : absorbance of blank for S (the blank contained no enzyme), and
CB : absorbance of blank for C (the blank contained no sample and no enzyme).

As for `O=C(O[C@@H]1Cc2c(O)cc(O)cc2O[C@@H]1c1ccc(O)c(O)c1)c1cc(O)c(O)c(O)c1` [ECg, (-)-epicatechin gallate], the IC50 in assay [1] (pure polyphenol compounds, FIG. 9, read-out: IC50 to ACE) was 2 mM; in assay [2] it was roughly 452 µM.

Take `O=C(/C=C/c1ccc(O)c(O)c1)O[C@@H]1C[C@](O)(C(=O)O)C[C@@H](O)[C@H]1O` [chlorogenic acid]: the “GTase-inhibiting activity (in words)” value in assay [2] is “very low GTase-inhibiting activity”.

For the compound `O=C(CCc1ccc(O)cc1)c1c(O)cc(O)cc1O[C@@H]1O[C@H](CO)[C@@H](O)[C@H](O)[C@H]1O` [phloridzin], the “antioxidative activity (amount of peroxylipid formed, absorbance at 500 nm)” value (shortened to “antioxidative activity”) in assay [3] is “no antioxidative activity”. The “GTase-inhibiting activity (in words)” value in assay [2] is “very low GTase-inhibiting activity”.

For `Oc1cc(O)c2c(c1)O[C@H](c1ccc(O)c(O)c1)[C@H](O)C2` [(-)-epicatechin], in assay [3], the “antioxidative activity” value is “antioxidative activities equivalent to those of BHA and BHT”. In assay [2], the “GTase-inhibiting activity (in words)” value is “very low GTase-inhibiting activity”.

Take `O=C(O)/C=C/c1ccc(O)c(O)c1` [caffeic acid]: the “antioxidative activity” value in assay [3] is “antioxidative activities equivalent to those of BHA and BHT”.

Regarding `O=c1c(O)c(-c2ccc(O)c(O)c2)oc2cc(O)cc(O)c12` [quercetin], the “antioxidative activity” value in assay [3] is “antioxidative activities equivalent to those of BHA and BHT”.

`O=C(CCc1ccc(O)cc1)c1c(O)cc(O)cc1O` [phloretin]: the “antioxidative activity” value in assay [3] is listed as “no antioxidative activity”.

Consider `C[C@@H]1O[C@@H](OC[C@H]2O[C@@H](Oc3c(-c4ccc(O)c(O)c4)oc4cc(O)cc(O)c4c3=O)[C@H](O)[C@@H](O)[C@@H]2O)[C@H](O)[C@H](O)[C@H]1O` [rutin], for which, in assay [3], the “antioxidative activity” value was “antioxidative activities equivalent to those of BHA and BHT”.

`NCCCC(=O)O` [GABA, γ-aminobutyric acid]: the “ACE-inhibiting activity (in words)” value in assay [1] is on record as “no ACE-inhibiting activity”.

In assay [1], `O=C(O[C@@H]1Cc2c(O)cc(O)cc2O[C@@H]1c1cc(O)c(O)c(O)c1)c1cc(O)c(O)c(O)c1` [EGCg, (-)-epigallocatechin gallate] had an IC50 of 0.3 mM. Also, the “amount showing 50% antimutagenic activity to Trp-P-2” value in assay [4] (1 μg of Trp-P-2, FIG. 13) is recorded as “about 51 μg”. The “amount showing 50% antimutagenic activity to benzo[a]pyrene” value in assay [4] (5 μg of benzo[a]pyrene, FIG. 14) is “about 56 μg”.

For `O=C(O)/C=C/c1ccc(O)cc1` [p-coumaric acid], in assay [3], the “antioxidative activity” value is given as “no antioxidative activity”.

As to `Oc1cc(O)c2c(c1)O[C@H](c1ccc(O)c(O)c1)[C@@H](O)C2` [(+)-catechin], the “antioxidative activity” value in assay [3] is “antioxidative activities equivalent to those of BHA and BHT”.

In the case of `O=C(O)c1cc(=O)c2c(OCC(O)COc3cccc4oc(C(=O)O)cc(=O)c34)cccc2o1` [sodium cromoglicate], at hyaluronidase, the IC50 is roughly 109 µM.

Broadly, the IC50 is the concentration needed to halve the response being measured.

Source of the values: US5932623A, “Process for the production of fruit polyphenols from unripe rosaceae fruit” (The Nikka Whisky Distilling Co., Ltd.,, priority 1993, dated 1999).
